# Source: patent publication US7476767B2, “Alpha-hydroxy sulfonate aldehydes, germicidal compositions containing the alpha-hydroxy sulfonate aldehydes, or mixtures of alpha-hydroxy sulfonate aldehydes and phthalaldehydes, and methods of using the compounds or compositions for disinfection or sterilization” (Ethicon, Inc., priority 2004, dated 2009)
# Experiments:
# [1] = tested on: Mycobacterium terrae bacteria; experiment: Bacterial suspension test; format: cell-based; conditions: for Log Reductions/mL: 20° C.; for Germicidal Efficacy: Table 14 summary
# Protocol: In this test method, 9 mL of the germicide to be tested is placed in a tube, put into a water bath and allowed to come to the desired temperature. One mL of the test organism, including at least 7 logs/mL of Mycobacterium terrae bacteria, is added to the 9 mL of the germicide to be tested. […] It will be appreciated by those skilled in the art that other concentrations may be utilized by proper dilution and accounting. At appropriate time intervals, 1 mL aliquots of the germicide-cell suspension were removed and added directly into 9 mL of a 1% glycine solution (neutralizer) and mixed thoroughly to neutralize the germicide in the transferred suspension. The glycine solution was prepared from solid glycine, which is available from VWR Scientific Products, among others. The above-identified 10 mL neutralized solution was then poured through a membrane filter having an average pore size of 0.45 micrometers. The filter was then rinsed twice with at least 150 mL of the 1% glycine solution per rinse. The filter was then placed on an agar plate and incubated for twenty-one days at 37° C. In the above procedure, if dilution was needed, then the 1 mL germicidal-cell suspension was diluted in 99 mL of a phosphate buffer before addition to the 9 mL of the 1% glycine solution. The phosphate buffer was DiLu-LoK™ Butterfields Phosphate Buffer, available from Hardy Diagnostics, of Santa Maria, Calif. The surviving colonies are then counted. The data is plotted as S/So vs. time. So is the initial count of the bacteria in the above 10 mL solution which is at least 10^6 bacteria/mL, and S is the surviving bacteria from the above filter on the agar plate. The results of the experiments were presented in terms of log reductions. Log reduction is the difference between log(So) and log(S). As one example, if log(So)=6.2, and if there were 100 survivors, then the log(S)=2, and the log reduction was reported as 4.2.
# Solubility in water = format: physicochemical
compound,measurement,setting,value
4-pyridinyl-propanedial,Log Reductions/mL,"[1]; Saturated (~2.3% w/v), 5 min",4.0 log reductions/mL
O=Cc1ccc(Br)cc1C=O [4-bromo-phthalaldehyde],Log Reductions/mL,"[1]; 0.1%, 30 min exposure",Total Kill
O=Cc1ccc(Cl)cc1C=O [4-chloro-phthalaldehyde],Log Reductions/mL,"[1]; 2.7 w/v % in 20% isopropanol, 5 min",Total Kill
O=Cc1ccc(F)cc1C=O [4-fluoro-phthalaldehyde],Log Reductions/mL,"[1]; 0.25%, 60 min exposure",Total Kill
"O=Cc1ccccc1C(O)S(=O)(=O)[O-].[Na+] (centres unmarked) [(2-formyl-phenyl)-hydroxy-methane sulfonic acid,sodium salt]",Log Reductions/mL,"[1]; 9.1%, 5 min",Confluent
"O=Cc1cccc(C=O)c1 [IPA, isophthalaldehyde]",Log Reductions/mL,"[1]; Table 11: 0.3%, dissolved in 20% isopropanol, 5 min",Confluent
same,Germicidal Efficacy,[1],Poor
same,Log Reductions/mL,"[1]; Table 15: 0.3%, dissolved in 20% isopropanol, 5 min",Confluent
"O=Cc1ccccc1C=O [OPA, phthalaldehyde]",Germicidal Efficacy,[1],Good
same,solubility in water,Solubility in water,about 5 % by weight
"O=Cc1ccc(C=O)cc1 [TPA, terephthalaldehyde]",Log Reductions/mL,"[1]; 0.2%, dissolved in 20% isopropanol, 5 min",Confluent
same,Germicidal Efficacy,[1],Poor
O=CC(C=O)c1ccccc1 [phenyl-propanedial],Log Reductions/mL,"[1]; Table 15: ~1%, 5 min",4.5 log reductions/mL
same,solubility in water,Solubility in water,about 1%
